Laboratory results published in patent US6737383B1, “Herbicidal oxadiazolidines” (priority 1999, dated 2004).

Tests used:
bedstraw = assay: Test B pre/postemergence bedstraw; type: in vivo, Galium aparine
Procedure, shortened: (§1)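 Response is a visual 0-to-10 score relative to untreated plants, where 0 means no effect and 10 means complete control, taken twelve to sixteen days after application. Treatments went onto soil at planting and onto foliage of 1- to 4-leaf plants, using a surfactant-containing non-phytotoxic solvent.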

blackgrass = assay: Test B pre/postemergence blackgrass; type: in vivo, Alopecurus myosuroides
Procedure, shortened: as §1

surinam grass = assay: Test B pre/postemergence surinam grass; type: in vivo, Brachiaria decumbens
Procedure, shortened: as §1

cocklebur = assay: Test B pre/postemergence cocklebur; type: in vivo, Xanthium strumarium
Procedure, shortened: as §1

corn = assay: Test B pre/postemergence corn; type: in vivo, Zea mays
Procedure, shortened: as §1

morningglory = assay: Test B pre/postemergence morningglory; type: in vivo, Ipomoea hederacea
Procedure, shortened: as §1

pigweed = assay: Test B pre/postemergence pigweed; type: in vivo, Amaranthus retroflexus
Procedure, shortened: as §1

rape = assay: Test B pre/postemergence rape; type: in vivo, Brassica napus
Procedure, shortened: as §1

soybean = assay: Test B pre/postemergence soybean; type: in vivo, Glycine max
Procedure, shortened: as §1

sugar beet = assay: Test B pre/postemergence sugar beet; type: in vivo, Beta vulgaris
Procedure, shortened: as §1

velvetleaf = assay: Test B pre/postemergence velvetleaf; type: in vivo, Abutilon theophrasti
Procedure, shortened: as §1

wild oat = assay: Test B pre/postemergence wild oat; type: in vivo, Avena fatua
Procedure, shortened: as §1

purple nutsedge = assay: Test B pre/postemergence purple nutsedge; type: in vivo, Cyperus rotundus
Procedure, shortened: as §1

rice = assay: Test B flood test rice; type: in vivo, Oryza sativa
Procedure, shortened: (§2)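 Each value is a visual injury score relative to controls, with 10 meaning complete control and 0 no effect. Evaluation took place twelve to sixteen days after the 2-leaf-stage plants were treated and kept in the greenhouse.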

smallflower flatsedge = assay: Test B flood test smallflower flatsedge; type: in vivo, Cyperus difformis
Procedure, shortened: as §2

bamyardgrass = assay: Test B flood test barnyardgrass; type: in vivo, Echinochloa crus-galli
Procedure, shortened: as §2

[1] = Postemergence, Rate 62 g/ha, scale 0 to 10, 0 is no effect, 10 is complete control
[2] = Preemergence, Rate 62 g/ha, scale 0 to 10 (0 no effect, 10 complete control)
[3] = Preemergence, Rate 125 g/ha, scale of 0 to 10 where 0 is no effect and 10 is complete control
[4] = Preemergence, Rate 250 g/ha, scale 0 to 10 (0 no effect, 10 complete control)
[5] = Preemergence, Rate 500 g/ha, scale of 0 to 10 where 0 is no effect and 10 is complete control
[6] = Postemergence, Rate 125 g/ha, scale of 0 to 10 where 0 is no effect and 10 is complete control
[7] = Postemergence, Rate 250 g/ha, scale of 0 to 10, 0 is no effect, 10 is complete control
[8] = Postemergence, Rate 500 g/ha, scale of 0 to 10 where 0 is no effect and 10 is complete control
[9] = Rate 62 g/ha, flood test species, Pre-emergence, visual evaluation after twelve to sixteen days
[10] = Rate 125 g/ha, under heading Pre-emergence, flood test species, visual evaluation after twelve to sixteen days
[11] = Rate 250 g/ha, Pre-emergence (flood test species), scale 0 to 10, 0 is no effect, 10 is complete control
[12] = Rate 500 g/ha, Pre-emergence section of Table B, 0 to 10 scale (0 no effect, 10 complete control)

CC(C)N(C(=O)n1oc(=O)n(CC2CCCCO2)c1=O)c1ccc(F)cc1 (stereo not drawn) [Compound 624]
8: Blackgrass plant response rating (blackgrass; [7]) | Blackgrass plant response rating (blackgrass; [3]) | Plant response rating, Blackgrass (blackgrass; [4]) | Plant response rating, B. signalgrass (surinam grass; [8]) | Plant response rating, B. signalgrass (surinam grass; [5]) | Plant response rating, Sugarbeets (sugar beet; [5]) | Plant response rating, Velvetleaf (velvetleaf; [5])
0: Plant response rating, Bedstraw (bedstraw; [1]) | Bedstraw plant response rating (bedstraw; [2]) | Bedstraw plant response rating (bedstraw; [3]) | Plant response rating, Bedstraw (bedstraw; [4]) | Plant response rating, Cocklebur (cocklebur; [1]) | Plant response rating, Cocklebur (cocklebur; [6]) | Cocklebur plant response rating (cocklebur; [2]) | Cocklebur plant response rating (cocklebur; [3]) | Plant response rating, Cocklebur (cocklebur; [4]) | Plant response rating, Cocklebur (cocklebur; [5]) | Plant response rating, Corn (corn; [1]) | Plant response rating, Corn (corn; [6]) | Corn plant response rating (corn; [2]) | Corn plant response rating (corn; [3]) | Morningglory plant response rating (morningglory; [2]) | Morningglory plant response rating (morningglory; [3]) | Plant response rating, Morningglory (morningglory; [4]) | Plant response rating, Morningglory (morningglory; [5]) | Plant response rating, Redroot pigweed (pigweed; [1]) | Plant response rating, Redroot pigweed (pigweed; [6]) | Redroot pigweed plant response rating (pigweed; [2]) | Redroot pigweed plant response rating (pigweed; [3]) | Plant response rating, Rape (rape; [1]) | Plant response rating, Rape (rape; [6]) | Rape plant response rating (rape; [7]) | Rape plant response rating (rape; [2]) | Rape plant response rating (rape; [3]) | Soybean plant response rating (soybean; [2]) | Soybean plant response rating (soybean; [3]) | Plant response rating, Sugarbeets (sugar beet; [1]) | Plant response rating, Sugarbeets (sugar beet; [6]) | Sugarbeets plant response rating (sugar beet; [7]) | Sugarbeets plant response rating (sugar beet; [2]) | Plant response rating, Velvetleaf (velvetleaf; [1]) | Plant response rating, Velvetleaf (velvetleaf; [6]) | Velvetleaf plant response rating (velvetleaf; [7]) | Velvetleaf plant response rating (velvetleaf; [2]) | Velvetleaf plant response rating (velvetleaf; [3]) | Plant response rating, Wild oats (wild oat; [1]) | Plant response rating, Wild oats (wild oat; [6]) | Wild oats plant response rating (wild oat; [7]) | Plant response rating, Nutsedge (purple nutsedge; [1]) | Plant response rating, Nutsedge (purple nutsedge; [6]) | Nutsedge plant response rating (purple nutsedge; [7]) | Nutsedge plant response rating (purple nutsedge; [2]) | Nutsedge plant response rating (purple nutsedge; [3]) | Plant response rating, Nutsedge (purple nutsedge; [4]) | Plant response rating, Nutsedge (purple nutsedge; [5]) | Plant response rating, Rice (0 to 10 scale, 0 is no effect, 10 is complete control) (rice; [9]) | Rice plant response rating (0 to 10 scale, 0 is no effect, 10 is complete control) (rice; [10]) | Rice plant response rating (rice; [11]) | Rice plant response rating (rice; [12]) | Plant response rating, S. Flatsedge (0 to 10 scale, 0 is no effect, 10 is complete control) (smallflower flatsedge; [9]) | S. Flatsedge plant response rating (0 to 10 scale, 0 is no effect, 10 is complete control) (smallflower flatsedge; [10]) | S. Flatsedge plant response rating (smallflower flatsedge; [11]) | S. Flatsedge plant response rating (smallflower flatsedge; [12]) | Plant response rating, Barnyardgrass (0 to 10 scale, 0 is no effect, 10 is complete control) (bamyardgrass; [9]) | Barnyardgrass plant response rating (0 to 10 scale, 0 is no effect, 10 is complete control) (bamyardgrass; [10]) | Barnyardgrass plant response rating (bamyardgrass; [11]) | Barnyardgrass plant response rating (bamyardgrass; [12])
7: Plant response rating, B. signalgrass (surinam grass; [6]) | B. signalgrass plant response rating (surinam grass; [7]) | Plant response rating, Rape (rape; [5]) | Soybean plant response rating (soybean; [7]) | Plant response rating, Soybean (soybean; [5]) | Plant response rating, Sugarbeets (sugar beet; [4])
2: Cocklebur plant response rating (cocklebur; [7]) | Corn plant response rating (corn; [7]) | Plant response rating, Corn (corn; [4]) | Plant response rating, Morningglory (morningglory; [8]) | Redroot pigweed plant response rating (pigweed; [7]) | Plant response rating, Soybean (soybean; [1]) | Wild oats plant response rating (wild oat; [2])
5: Plant response rating, Blackgrass (blackgrass; [6]) | Plant response rating, Corn (corn; [8])
9: Plant response rating, Blackgrass (blackgrass; [8]) | Plant response rating, Blackgrass (blackgrass; [5])
3: Plant response rating, Bedstraw (bedstraw; [5]) | B. signalgrass plant response rating (surinam grass; [2]) | Plant response rating, Redroot pigweed (pigweed; [4]) | Plant response rating, Rape (rape; [8]) | Plant response rating, Soybean (soybean; [6]) | Plant response rating, Soybean (soybean; [4]) | Plant response rating, Nutsedge (purple nutsedge; [8])
4: Plant response rating, Blackgrass (blackgrass; [1]) | Plant response rating, B. signalgrass (surinam grass; [1])
1: Blackgrass plant response rating (blackgrass; [2]) | Plant response rating, Morningglory (morningglory; [1]) | Plant response rating, Morningglory (morningglory; [6]) | Morningglory plant response rating (morningglory; [7]) | Plant response rating, Rape (rape; [4]) | Sugarbeets plant response rating (sugar beet; [3]) | Plant response rating, Velvetleaf (velvetleaf; [4])
6: B. signalgrass plant response rating (surinam grass; [3]) | Plant response rating, B. signalgrass (surinam grass; [4]) | Plant response rating, Cocklebur (cocklebur; [8]) | Plant response rating, Corn (corn; [5]) | Wild oats plant response rating (wild oat; [3]) | Plant response rating, Wild oats (wild oat; [4]) | Plant response rating, Wild oats (wild oat; [5])
10: Plant response rating, Redroot pigweed (pigweed; [5])
